Assay results as given in the kinase profiling compilation of Christmann-Franck et al. (2016).

How the values were obtained:
Experiment in all cases: radiometric filter-binding kinase assay, Kinaseprofiler
DCLK2 (human) = DCLK2 (human) (UniProt Q8N568); details: ATP 90 µM
SRPK1 (human) = SRPK1 (human) (UniProt Q96SB4); details: ATP 10 µM
PRKCA (human) = PRKCA (human) (UniProt P17252); details: ATP 45 µM
MAPK8 (human) = MAPK8 (human) (UniProt P45983); details: ATP 45 µM
MAP3K5 (human) = MAP3K5 (human) (UniProt Q99683); details: ATP 200 µM
EPHB1 (human) = EPHB1 (human) (UniProt P54762); details: ATP 200 µM
PRKCG (human) = PRKCG (human) (UniProt P05129); details: ATP 15 µM
MST1R (human) = MST1R (human) (UniProt Q04912); details: ATP 70 µM
CDC42BPA (human) = CDC42BPA (human) (UniProt Q5VT25); details: ATP 45 µM
TYRO3 (human) = TYRO3 (human) (UniProt Q06418); details: ATP 45 µM
MAPK11 (human) = MAPK11 (human) (UniProt Q15759); details: ATP 45 µM
[1] = target: PRKAA2 PRKAB1 PRKAG1 (human) (UniProt P54619+P54646+Q9Y478); details: ATP 45 µM
GRK6 (human) = GRK6 (human) (UniProt P43250); details: ATP 45 µM
RPS6KA6 KD1 KD2 (human) = RPS6KA6 KD1 KD2 (human) (UniProt Q9UK32); details: ATP 45 µM
CAMK2B (human) = CAMK2B (human) (UniProt Q13554); details: ATP 15 µM
FER (human) = FER (human) (UniProt P16591); details: ATP 70 µM
PRKD2 (human) = PRKD2 (human) (UniProt Q9BZL6); details: ATP 155 µM
EPHA1 (human) = EPHA1 (human) (UniProt P21709); details: ATP 45 µM
CHUK (human) = CHUK (human) (UniProt O15111); details: ATP 10 µM
CDK9 CCNT1 (human) = CDK9 CCNT1 (human) (UniProt P50750+O60563); details: ATP 45 µM
ULK2 (human) = ULK2 (human) (UniProt Q8IYT8); details: ATP 15 µM
MAPK1 (human) = MAPK1 (human) (UniProt P28482); details: ATP 155 µM
FGFR2 (human) = FGFR2 (human) (UniProt P21802); details: ATP 90 µM
PLK2 (human) = PLK2 (human) (UniProt Q9NYY3); details: ATP 120 µM
DAPK2 (human) = DAPK2 (human) (UniProt Q9UIK4); details: ATP 10 µM
CDC42BPB (human) = CDC42BPB (human) (UniProt Q9Y5S2); details: ATP 10 µM
[2] = test system: EEF2K (human), O00418 [H23R]; details: ATP 15 µM
ABL1 (human) = ABL1 (human) (UniProt P00519); details: ATP 10 µM
SYK (human) = SYK (human) (UniProt P43405); details: ATP 15 µM
FGFR1 (human) = FGFR1 (human) (UniProt P11362); details: ATP 200 µM
CLK2 (human) = CLK2 (human) (UniProt P49760); details: ATP 15 µM
FLT3 (human) = FLT3 (human) (UniProt P36888); details: ATP 200 µM

SRPK1 (human), sequence (Q96SB4 whole entry, looked up): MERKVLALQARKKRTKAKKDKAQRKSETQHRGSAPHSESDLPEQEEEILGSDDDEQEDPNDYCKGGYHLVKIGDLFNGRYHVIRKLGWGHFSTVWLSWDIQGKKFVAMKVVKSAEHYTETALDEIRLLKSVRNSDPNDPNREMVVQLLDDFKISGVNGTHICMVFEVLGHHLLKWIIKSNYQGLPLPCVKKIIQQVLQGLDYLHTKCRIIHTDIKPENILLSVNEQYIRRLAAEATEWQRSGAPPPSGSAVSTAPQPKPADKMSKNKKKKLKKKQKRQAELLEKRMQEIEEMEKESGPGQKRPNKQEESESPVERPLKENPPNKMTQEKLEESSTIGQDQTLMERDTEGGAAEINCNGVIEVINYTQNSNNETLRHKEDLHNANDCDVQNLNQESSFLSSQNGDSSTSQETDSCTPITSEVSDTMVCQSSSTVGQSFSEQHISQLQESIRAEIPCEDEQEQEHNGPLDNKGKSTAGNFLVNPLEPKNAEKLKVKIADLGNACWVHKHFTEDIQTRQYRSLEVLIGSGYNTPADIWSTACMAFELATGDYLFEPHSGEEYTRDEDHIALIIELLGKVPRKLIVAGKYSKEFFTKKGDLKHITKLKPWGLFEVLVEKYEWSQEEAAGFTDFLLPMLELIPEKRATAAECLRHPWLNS
CDC42BPA (human), sequence (Q5VT25 whole entry, looked up): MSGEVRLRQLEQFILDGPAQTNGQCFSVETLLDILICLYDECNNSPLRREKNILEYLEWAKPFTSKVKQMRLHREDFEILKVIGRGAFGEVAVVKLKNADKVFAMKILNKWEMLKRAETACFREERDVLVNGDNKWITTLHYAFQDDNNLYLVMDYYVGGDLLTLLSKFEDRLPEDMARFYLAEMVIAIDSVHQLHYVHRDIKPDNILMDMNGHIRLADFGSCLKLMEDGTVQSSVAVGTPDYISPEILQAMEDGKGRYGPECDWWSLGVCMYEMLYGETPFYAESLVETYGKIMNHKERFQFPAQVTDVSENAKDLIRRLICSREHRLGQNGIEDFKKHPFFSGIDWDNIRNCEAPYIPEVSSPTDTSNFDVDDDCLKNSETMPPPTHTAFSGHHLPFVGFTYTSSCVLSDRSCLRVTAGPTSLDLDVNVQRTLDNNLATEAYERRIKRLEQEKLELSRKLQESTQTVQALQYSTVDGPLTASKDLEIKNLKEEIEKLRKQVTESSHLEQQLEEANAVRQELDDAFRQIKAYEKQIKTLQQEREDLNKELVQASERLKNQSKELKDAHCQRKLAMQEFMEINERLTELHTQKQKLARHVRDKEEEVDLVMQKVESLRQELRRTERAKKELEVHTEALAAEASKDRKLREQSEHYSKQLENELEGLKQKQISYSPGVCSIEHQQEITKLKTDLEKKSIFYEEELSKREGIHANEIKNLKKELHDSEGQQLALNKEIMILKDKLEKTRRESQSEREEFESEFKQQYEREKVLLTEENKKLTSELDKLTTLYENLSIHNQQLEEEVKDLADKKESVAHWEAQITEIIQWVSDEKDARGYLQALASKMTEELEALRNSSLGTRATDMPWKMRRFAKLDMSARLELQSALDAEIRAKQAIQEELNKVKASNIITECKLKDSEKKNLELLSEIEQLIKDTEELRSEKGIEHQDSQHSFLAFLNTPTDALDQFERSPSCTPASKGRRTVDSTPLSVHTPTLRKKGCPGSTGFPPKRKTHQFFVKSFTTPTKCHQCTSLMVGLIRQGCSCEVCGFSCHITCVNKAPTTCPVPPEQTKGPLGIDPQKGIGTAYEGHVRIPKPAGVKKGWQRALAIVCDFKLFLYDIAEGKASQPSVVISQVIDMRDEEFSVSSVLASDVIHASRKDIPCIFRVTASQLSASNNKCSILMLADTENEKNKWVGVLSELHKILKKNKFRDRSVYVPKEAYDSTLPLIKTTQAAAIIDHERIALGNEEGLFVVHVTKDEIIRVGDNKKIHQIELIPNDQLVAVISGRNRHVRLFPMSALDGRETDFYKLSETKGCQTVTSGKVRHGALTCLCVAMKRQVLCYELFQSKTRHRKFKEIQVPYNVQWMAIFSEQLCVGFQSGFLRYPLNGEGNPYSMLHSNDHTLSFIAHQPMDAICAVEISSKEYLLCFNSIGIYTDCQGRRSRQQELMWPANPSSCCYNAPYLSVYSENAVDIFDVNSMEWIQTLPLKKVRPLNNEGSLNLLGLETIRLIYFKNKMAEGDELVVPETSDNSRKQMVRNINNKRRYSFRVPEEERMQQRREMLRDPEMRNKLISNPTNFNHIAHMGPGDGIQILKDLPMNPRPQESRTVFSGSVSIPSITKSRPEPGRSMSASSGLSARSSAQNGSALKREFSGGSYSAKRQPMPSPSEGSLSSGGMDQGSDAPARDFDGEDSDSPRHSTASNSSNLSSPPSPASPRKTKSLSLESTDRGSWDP
ABL1 (human), sequence (P00519 whole entry, looked up): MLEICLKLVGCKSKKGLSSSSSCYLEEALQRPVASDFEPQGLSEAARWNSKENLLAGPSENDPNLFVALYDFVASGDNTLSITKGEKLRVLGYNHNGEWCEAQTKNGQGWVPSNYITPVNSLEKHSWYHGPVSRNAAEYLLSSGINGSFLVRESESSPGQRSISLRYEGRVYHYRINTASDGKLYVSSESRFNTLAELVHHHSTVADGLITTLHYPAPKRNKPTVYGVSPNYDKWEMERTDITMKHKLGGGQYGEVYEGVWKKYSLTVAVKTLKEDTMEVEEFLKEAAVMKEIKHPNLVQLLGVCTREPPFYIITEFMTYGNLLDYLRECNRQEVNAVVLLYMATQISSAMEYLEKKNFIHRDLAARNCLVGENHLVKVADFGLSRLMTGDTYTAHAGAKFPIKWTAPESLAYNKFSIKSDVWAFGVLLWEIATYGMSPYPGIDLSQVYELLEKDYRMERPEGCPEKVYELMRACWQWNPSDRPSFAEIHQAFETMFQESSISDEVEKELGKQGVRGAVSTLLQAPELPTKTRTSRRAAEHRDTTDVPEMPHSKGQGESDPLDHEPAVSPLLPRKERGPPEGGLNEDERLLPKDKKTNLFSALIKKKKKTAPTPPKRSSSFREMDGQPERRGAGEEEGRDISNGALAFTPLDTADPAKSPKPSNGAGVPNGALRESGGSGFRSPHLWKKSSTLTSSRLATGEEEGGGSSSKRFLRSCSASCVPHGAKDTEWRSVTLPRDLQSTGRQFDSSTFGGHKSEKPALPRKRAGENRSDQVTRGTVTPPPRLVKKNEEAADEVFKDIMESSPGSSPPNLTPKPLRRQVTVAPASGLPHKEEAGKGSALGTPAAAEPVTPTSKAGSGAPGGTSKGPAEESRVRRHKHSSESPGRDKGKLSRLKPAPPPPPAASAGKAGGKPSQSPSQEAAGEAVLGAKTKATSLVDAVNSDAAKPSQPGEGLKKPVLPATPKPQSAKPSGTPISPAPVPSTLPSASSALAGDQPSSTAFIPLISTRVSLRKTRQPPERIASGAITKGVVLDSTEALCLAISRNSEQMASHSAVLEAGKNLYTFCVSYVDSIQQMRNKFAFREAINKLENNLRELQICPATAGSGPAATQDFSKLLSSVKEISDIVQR
EPHA1 (human), sequence (P21709 whole entry, looked up): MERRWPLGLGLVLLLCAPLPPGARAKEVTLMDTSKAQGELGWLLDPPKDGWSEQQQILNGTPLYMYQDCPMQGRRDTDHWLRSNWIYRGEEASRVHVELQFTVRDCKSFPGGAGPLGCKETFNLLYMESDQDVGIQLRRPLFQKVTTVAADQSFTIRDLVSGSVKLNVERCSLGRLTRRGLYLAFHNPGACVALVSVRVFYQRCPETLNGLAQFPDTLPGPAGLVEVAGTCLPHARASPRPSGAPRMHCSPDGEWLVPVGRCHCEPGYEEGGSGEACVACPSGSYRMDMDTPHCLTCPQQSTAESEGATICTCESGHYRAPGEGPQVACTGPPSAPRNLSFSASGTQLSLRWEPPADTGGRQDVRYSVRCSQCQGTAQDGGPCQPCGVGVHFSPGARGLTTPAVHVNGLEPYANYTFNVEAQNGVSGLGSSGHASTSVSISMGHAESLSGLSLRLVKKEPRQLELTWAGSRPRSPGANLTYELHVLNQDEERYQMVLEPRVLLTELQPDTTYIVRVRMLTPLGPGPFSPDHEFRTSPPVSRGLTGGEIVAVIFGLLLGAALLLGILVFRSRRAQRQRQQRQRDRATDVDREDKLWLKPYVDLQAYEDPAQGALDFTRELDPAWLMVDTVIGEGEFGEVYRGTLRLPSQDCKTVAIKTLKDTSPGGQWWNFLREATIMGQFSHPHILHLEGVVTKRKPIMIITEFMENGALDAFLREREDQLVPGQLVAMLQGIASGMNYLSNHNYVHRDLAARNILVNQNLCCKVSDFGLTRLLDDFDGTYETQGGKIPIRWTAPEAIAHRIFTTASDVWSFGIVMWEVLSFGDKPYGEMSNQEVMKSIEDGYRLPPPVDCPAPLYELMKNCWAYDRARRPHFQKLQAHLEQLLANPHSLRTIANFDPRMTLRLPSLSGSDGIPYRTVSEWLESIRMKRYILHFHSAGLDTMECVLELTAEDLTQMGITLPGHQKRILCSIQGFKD
MAPK11 (human), sequence (Q15759 whole entry, looked up): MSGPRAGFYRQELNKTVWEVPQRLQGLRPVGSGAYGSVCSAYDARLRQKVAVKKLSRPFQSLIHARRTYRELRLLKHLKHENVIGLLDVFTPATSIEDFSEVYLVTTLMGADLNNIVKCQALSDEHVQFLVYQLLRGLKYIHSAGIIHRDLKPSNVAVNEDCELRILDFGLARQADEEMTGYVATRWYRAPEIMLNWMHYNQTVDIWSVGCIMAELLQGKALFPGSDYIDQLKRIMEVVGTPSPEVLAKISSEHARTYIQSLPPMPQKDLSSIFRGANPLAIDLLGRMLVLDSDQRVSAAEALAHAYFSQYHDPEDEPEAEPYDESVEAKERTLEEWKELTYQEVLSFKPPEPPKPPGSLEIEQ

Q: Which residual activity (DCLK2 (human); compound 1.0 µM) does the source give for `O=C1Nc2ccccc2/C1=C1\Nc2ccccc2\C1=N/O` here?
A: Its residual activity is 119%.

Q: What about the residual activity (DCLK2 (human); compound 10.0 µM) of the same molecule?
A: Its residual activity is 74%.

Q: What about the residual activity (SRPK1 (human); compound 1.0 µM) of the same molecule?
A: The residual activity was 90%.

Q: What about the residual activity (SRPK1 (human); compound 10.0 µM) of the same molecule?
A: The residual activity was 66%.

Q: What about the residual activity (PRKCA (human); compound 1.0 µM) of the same molecule?
A: Its residual activity is 93%.

Q: And the residual activity (PRKCA (human); compound 10.0 µM)?
A: The residual activity was 86%.

Q: What about the residual activity (MAPK8 (human); compound 1.0 µM) of the same molecule?
A: The residual activity was 63%.

Q: What about the residual activity (MAPK8 (human); compound 10.0 µM) of the same molecule?
A: Its residual activity is 70%.

Q: And the residual activity (MAP3K5 (human); compound 1.0 µM)?
A: The residual activity was 52%.

Q: And the residual activity (MAP3K5 (human); compound 10.0 µM)?
A: Its residual activity is 7%.

Q: What about the residual activity (EPHB1 (human); compound 1.0 µM) of the same molecule?
A: The residual activity was 59%.

Q: What about the residual activity (EPHB1 (human); compound 10.0 µM) of the same molecule?
A: Its residual activity is 13%.

Q: What about the residual activity (PRKCG (human); compound 1.0 µM) of the same molecule?
A: The residual activity was 92%.

Q: And the residual activity (PRKCG (human); compound 10.0 µM)?
A: The residual activity was 73%.

Q: And the residual activity (MST1R (human); compound 1.0 µM)?
A: The residual activity was 86%.

Q: What about the residual activity (MST1R (human); compound 10.0 µM) of the same molecule?
A: Its residual activity is 71%.

Q: And the residual activity (CDC42BPA (human); compound 1.0 µM)?
A: The residual activity was 142%.

Q: And the residual activity (CDC42BPA (human); compound 10.0 µM)?
A: Its residual activity is 135%.

Q: And the residual activity (TYRO3 (human); compound 1.0 µM)?
A: Its residual activity is 62%.

Q: And the residual activity (TYRO3 (human); compound 10.0 µM)?
A: Its residual activity is 15%.

Q: What about the residual activity (MAPK11 (human); compound 1.0 µM) of the same molecule?
A: The residual activity was 101%.

Q: And the residual activity (MAPK11 (human); compound 10.0 µM)?
A: The residual activity was 90%.

Q: What about the residual activity ([1]; compound 1.0 µM) of the same molecule?
A: The residual activity was 1%.

Q: What about the residual activity ([1]; compound 10.0 µM) of the same molecule?
A: The residual activity was 3%.

Q: What about the residual activity (GRK6 (human); compound 1.0 µM) of the same molecule?
A: Its residual activity is 81%.

Q: What about the residual activity (GRK6 (human); compound 10.0 µM) of the same molecule?
A: The residual activity was 80%.

Q: What about the residual activity (RPS6KA6 KD1 KD2 (human); compound 1.0 µM) of the same molecule?
A: The residual activity was 20%.

Q: What about the residual activity (RPS6KA6 KD1 KD2 (human); compound 10.0 µM) of the same molecule?
A: The residual activity was 12%.

Q: What about the residual activity (CAMK2B (human); compound 1.0 µM) of the same molecule?
A: The residual activity was 33%.

Q: What about the residual activity (CAMK2B (human); compound 10.0 µM) of the same molecule?
A: Its residual activity is 11%.

Q: And the residual activity (FER (human); compound 1.0 µM)?
A: Its residual activity is 70%.

Q: What about the residual activity (FER (human); compound 10.0 µM) of the same molecule?
A: The residual activity was 53%.

Q: What about the residual activity (PRKD2 (human); compound 1.0 µM) of the same molecule?
A: The residual activity was 109%.

Q: What about the residual activity (PRKD2 (human); compound 10.0 µM) of the same molecule?
A: The residual activity was 98%.

Q: What about the residual activity (EPHA1 (human); compound 1.0 µM) of the same molecule?
A: Its residual activity is 55%.

Q: What about the residual activity (EPHA1 (human); compound 10.0 µM) of the same molecule?
A: Its residual activity is 61%.

Q: What about the residual activity (CHUK (human); compound 1.0 µM) of the same molecule?
A: The residual activity was 76%.

Q: And the residual activity (CHUK (human); compound 10.0 µM)?
A: The residual activity was 57%.

Q: And the residual activity (CDK9 CCNT1 (human); compound 1.0 µM)?
A: The residual activity was 26%.

Q: And the residual activity (CDK9 CCNT1 (human); compound 10.0 µM)?
A: Its residual activity is 11%.

Q: And the residual activity (ULK2 (human); compound 1.0 µM)?
A: Its residual activity is 93%.

Q: What about the residual activity (ULK2 (human); compound 10.0 µM) of the same molecule?
A: Its residual activity is 59%.

Q: What about the residual activity (MAPK1 (human); compound 1.0 µM) of the same molecule?
A: Its residual activity is 104%.

Q: And the residual activity (MAPK1 (human); compound 10.0 µM)?
A: Its residual activity is 103%.

Q: What about the residual activity (FGFR2 (human); compound 1.0 µM) of the same molecule?
A: Its residual activity is 22%.

Q: And the residual activity (FGFR2 (human); compound 10.0 µM)?
A: The residual activity was 2%.

Q: And the residual activity (PLK2 (human); compound 1.0 µM)?
A: The residual activity was 97%.

Q: And the residual activity (PLK2 (human); compound 10.0 µM)?
A: Its residual activity is 82%.

Q: And the residual activity (DAPK2 (human); compound 1.0 µM)?
A: Its residual activity is 73%.

Q: What about the residual activity (DAPK2 (human); compound 10.0 µM) of the same molecule?
A: The residual activity was 23%.

Q: What about the residual activity (CDC42BPB (human); compound 1.0 µM) of the same molecule?
A: Its residual activity is 106%.

Q: What about the residual activity (CDC42BPB (human); compound 10.0 µM) of the same molecule?
A: Its residual activity is 103%.

Q: And the residual activity ([2]; compound 1.0 µM)?
A: Its residual activity is 109%.

Q: What about the residual activity ([2]; compound 10.0 µM) of the same molecule?
A: Its residual activity is 93%.

Q: And the residual activity (ABL1 (human); compound 1.0 µM)?
A: Its residual activity is 49%.

Q: And the residual activity (ABL1 (human); compound 10.0 µM)?
A: Its residual activity is 16%.

Q: What about the residual activity (SYK (human); compound 1.0 µM) of the same molecule?
A: Its residual activity is 49%.

Q: And the residual activity (SYK (human); compound 10.0 µM)?
A: The residual activity was 60%.

Q: What about the residual activity (FGFR1 (human); compound 1.0 µM) of the same molecule?
A: Its residual activity is 3%.

Q: What about the residual activity (FGFR1 (human); compound 10.0 µM) of the same molecule?
A: The residual activity was -1%.

Q: And the residual activity (CLK2 (human); compound 1.0 µM)?
A: The residual activity was 14%.

Q: What about the residual activity (CLK2 (human); compound 10.0 µM) of the same molecule?
A: Its residual activity is 4%.

Q: What about the residual activity (FLT3 (human); compound 1.0 µM) of the same molecule?
A: Its residual activity is 1%.

Q: What about the residual activity (FLT3 (human); compound 10.0 µM) of the same molecule?
A: Its residual activity is 0%.
